Laboratory results as given in PubChem BioAssay (NCI).
Values joined by “and” are separate entries in the source; they are usually repeats but may differ in a detail not shown here. Equal values may be shown once.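 Step 1: Grow cells in 96-well plates. Step 2: Expose to compound for 48 hours at 5 concentrations. Step 3: Interpolate endpoints linearly; if unreached, use highest concentration. Abbreviation: GI50, concentration required for 50% inhibition of growth. TGI is the concentration that stops growth completely.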

Legend:
Assay in all cases: NCI tumour cell line growth inhibition, 48 h
DLD-1 colon = system: DLD-1 colon
SN12K1 renal = system: SN12K1 renal
P388 leukemia = system: P388 leukemia
P388/ADR leukemia = system: P388/ADR leukemia
LXFL 529 NSCLC = system: LXFL 529 NSCLC
DMS 114 small cell lung = system: DMS 114 small cell lung

Compound	TGI (DLD-1 colon)	TGI (SN12K1 renal)	GI50 (P388 leukemia)	TGI (P388 leukemia)	TGI (P388/ADR leukemia)	TGI (LXFL 529 NSCLC)	TGI (DMS 114 small cell lung)
COc1cc(/C=C(\C#N)C(N)=O)cc(Br)c1O	> 100 µM	> 100 µM	85.3 µM and 44.5 µM	> 100 µM	> 100 µM	–	–
COC1C=CC(O)C(CO)O1 (stereo not drawn)	> 100 µM	–	–	–	–	> 100 µM	–
O=C1CCC(c2ccc(Cl)cc2)=NN1c1nsc2ccccc12	–	–	–	–	–	81.4 µM	87.9 µM
CC1NC(=O)CC(c2ccccc2)N(N=O)C1c1ccccc1 (stereo not drawn)	> 100 µM	48.3 µM	–	> 57.8 µM	> 60.2 µM	–	–
